According to patent US10238633B2, “Methods for treating pulmonary emphysema using substituted 2-Aza-bicyclo[2.2.1]heptane-3-carboxylic acid (benzyl-cyano-methyl)-amides inhibitors of Cathepsin C” (Boehringer Ingelheim International GmbH, priority 2013, dated 2019):

test system: Neutrophil elastase activity in U937 cells; assay: Determination of neutrophil elastase activity in U937 cytosolic lysate preparation after incubation with test compound; type: cell-based; conditions: Homo sapiens, U-937, read-out: Reduction of NE-activity in U937 cells IC50
Protocol: Determination of Neutrophil Elastase Activity in U937 Cytosolic Lysate Preparation after Incubation with Test Compound
Optiplate 384F were purchased from PerkinElmer (Prod. No. #6007270). 24 well Nunclon cell culture plates (No. 142475) and 96 well plates (No. 267245) were from Nunc. Dimethylsulfoxid (DMSO) was from Sigma (Prod. No. D8418). Nonidet-P40 (NP40) was from USBiological (Prod. No. N3500)
Substrate, specific for Neutrophil elastase, was from Bachem (MeOSuc-Ala-Ala-Pro-Val-AMC; Prod. No. 1-1270).
Human neutrophil elastase was from Calbiochem (Prod. No. 324681)
Tris-buffer (100 mM Tris; 1M NaCL; pH 7.5)
Tris-buffer+HSA 0.1%; Human Serum Albumin from Calbiochem (Cat#. 126658)
Serine-protease buffer (20 mM Tris; 100 mM NaCL; pH 7.5)+0.1% HSA
Serine protease lysis buffer: 20 mM Tris-HCL; 100 mM NaCl pH 7.5; +0.2% Nonidet-P40;
PBS: phosphate buffered saline, without Ca and Mg, from Gibco
U937 from ECACC (Cat. No. 85011440) cultured in suspension at 37° C. and 5% CO2.
Cell density: 0.2-1 Mio. Cells/ml.
Medium: RPMI1640 GlutaMAX (No. 61870) with 10% FCS from Gibco
Cell Seeding and Treatment:
Compounds in 100% DMSO were diluted in Medium (—FCS) with 10% DMSO and further diluted according to the experiment planned.
20 μl of the compound solution was transferred in the respective wells of the 24 well plate and diluted with 2 ml cell suspension/well containing […] (final concentration of DMSO=0.1%). Compound dilution factor=100
Compounds (up to 7 concentrations) were tested in triplicates with 3 wells for the DMSO 0.1% control, incubated for 48 hours without medium change at 37° C., 5% CO2 and 95% relative humidity.
Cell Harvesting and Cell Lysate:
Transfer the cell suspension in 2.2 ml Eppendorf cups. Separate cells from medium by centrifugation (400×g; 5 min; RT); discard the supernatant. Resuspend in 1 ml PBS; centrifugation (400×g; 5 min; RT); wash cells twice with PBS. Add 100 μl Serin lysis buffer (ice cold) to the cell pellet; resuspend the pellet and store on ice for 15 minutes. Remove debris by centrifugation at 15000×g for 10 min at 4° C. Transfer 80-100 μl lysate supernatant in 96 well plate and store immediately at −80° C.
Neutrophil Elastase Activity Assay:
Frozen lysates were thawn at 37° C. for 10 minutes and stored on ice. Protein content was determined with Bradford protein assay. Lysates were diluted to 0.2-0.5 mg/ml protein in serine protease buffer+HSA.
Standard: NE (100 μg/ml stock solution in Tris-buffer; stored at −80° C.) was diluted in Tris-buffer+HSA to 750 ng/ml, and further serially diluted 1:2 for the standard curve.
Buffer, blank, standard and lysate samples were transferred into 384 well plate
Blank: 5 μl Tris-buffer+10 μl Tris-buffer+HSA+5 μl Substrate
Standard: 5 μl Tris-buffer+10 μl NE (diff. conc.)+5 μl Substrate
Lysate: 5 μl Tris-buffer+10 μl Lysat+[…] Substrate
The increase in fluorescence (Ex360 nm/Em 460 nm) is determined over 30 minutes with a Molecular Device Spectramax M5 Fluorescence Reader. Kinetic Reduction (Vmax units/sec); 4 vmax points. The amount of neutrophil elastase (ng/ml) is calculated using the standard curve and the Spectramax software. The result is interpolated to ng/mg lysate protein using excel formula functions. […] IC50 is calculated using Graphpad Prism; nonlinear fitting (log(inhibitor) vs. response—Variable slope).

IC50 [nM] | SMILES
2.3 | CN1Cc2ccc(-c3ccc(C[C@@H](C#N)NC(=O)[C@H]4N[C@@H]5CC[C@H]4C5)c(F)c3)cc2C1 [Example 1, (1S,2S,4R)—N-[(1S)-1-cyano-2-[2-fluoro-4-(2-methylisoindolin-5-yl)phenyl]ethyl]-3-azabicyclo[2.2.1]heptane-2-carboxamide]
6.2 | CN1C(=O)Cc2ccc(-c3ccc(C[C@@H](C#N)NC(=O)[C@H]4N[C@@H]5CC[C@H]4C5)c(F)c3)cc21 [Example 2, (1S,2S,4R)—N-[(1S)-1-cyano-2-[2-fluoro-4-(1-methyl-2-oxo-indolin-6-yl)phenyl]ethyl]-3-azabicyclo[2.2.1]heptane-2-carboxamide]
2.9 | N#C[C@H](Cc1ccc(-c2ccc3c(c2)COC3=O)cc1F)NC(=O)[C@H]1N[C@@H]2CC[C@H]1C2 [Example 3, (1S,2S,4R)—N-[(1S)-1-cyano-2-[2-fluoro-4-(1-oxo-3H-isobenzofuran-5-yl)phenyl]ethyl]-3-azabicyclo[2.2.1]heptane-2-carboxamide]
6.4 | CS(=O)(=O)c1cccc(-c2ccc(C[C@@H](C#N)NC(=O)[C@H]3N[C@@H]4CC[C@H]3C4)c(F)c2)c1 [Example 4, (1S,2S,4R)—N-[(1S)-1-cyano-2-[2-fluoro-4-(3-methylsulfonylphenyl)phenyl]ethyl]-3-azabicyclo[2.2.1]heptane-2-carboxamide]
2.4 | CN1CCN(c2ccc(C[C@@H](C#N)NC(=O)[C@H]3N[C@@H]4CC[C@H]3C4)c(F)c2)CC1 [Example 6, (1S,2S,4R)—N-[(1S)-1-cyano-2-[2-fluoro-4-(4-methylpiperazin-1-yl)phenyl]ethyl]-3-azabicyclo[2.2.1]heptane-2-carboxamide]
8.7 | N#CC(Cc1ccc(-c2ccc3c(c2)COC3=O)cc1F)NC(=O)[C@H]1N[C@@H]2CC[C@H]1C2 (stereo partly shown) [Example 11]
14.5 | CS(=O)(=O)c1ccc(-c2ccc(C[C@@H](C#N)NC(=O)[C@H]3N[C@@H]4CC[C@H]3C4)c(F)c2)cc1 [Example 16]
8.8 | N#C[C@H](Cc1ccc(-c2ccc3c(c2)NC(=O)C3)cc1F)NC(=O)[C@H]1N[C@@H]2CC[C@H]1C2 [Example 29]
8.3 | CN1CCc2cc(-c3ccc(C[C@@H](C#N)NC(=O)[C@H]4N[C@@H]5CC[C@H]4C5)c(F)c3)ccc2C1=O [Example 42]
9.2 | N#C[C@H](Cc1ccc(N2CCN3CCOCC3C2)cc1F)NC(=O)[C@H]1N[C@@H]2CC[C@H]1C2 (stereo partly shown) [Example 43]
4.6 | N#C[C@H](Cc1ccc(N2CCN(CC3CCCO3)CC2)cc1F)NC(=O)[C@H]1N[C@@H]2CC[C@H]1C2 (stereo partly shown) [Example 154]
0.5 | CN1CCN(S(=O)(=O)c2ccc(-c3ccc(C[C@@H](C#N)NC(=O)[C@H]4N[C@@H]5CC[C@H]4C5)c(F)c3)cc2)CC1 [Example 155]
2.3 | CC1(C)OC(=O)c2ccc(-c3ccc(C[C@@H](C#N)NC(=O)[C@H]4N[C@@H]5CC[C@H]4C5)c(F)c3)cc21 [Example 156]
8.8 | COCCN1C(=O)Cc2ccc(-c3ccc(C[C@@H](C#N)NC(=O)[C@H]4N[C@@H]5CC[C@H]4C5)c(F)c3)cc21 [Example 158]
9.1 | CN1Cc2cc(-c3ccc(C[C@@H](C#N)NC(=O)[C@H]4N[C@@H]5CC[C@H]4C5)c(F)c3)ccc2S1(=O)=O [Example 169]
9.2 | N#C[C@H](Cc1ccc(-c2ccc(S(=O)(=O)N3CCCCC3)cc2)cc1F)NC(=O)[C@H]1N[C@@H]2CC[C@H]1C2 [Example 177]
3.6 | COCCN1CCN(c2ccc(C[C@@H](C#N)NC(=O)[C@H]3N[C@@H]4CC[C@H]3C4)c(F)c2)CC1C (stereo partly shown) [Example 178]
8.1 | COCCN1CCN(c2ccc(C[C@@H](C#N)NC(=O)[C@H]3N[C@@H]4CC[C@H]3C4)c(F)c2)CC1 [Example 182]
3.9 | CN1CCN(C(=O)c2ccc(-c3ccc(C[C@@H](C#N)NC(=O)[C@H]4N[C@@H]5CC[C@H]4C5)c(F)c3)cc2)CC1 [Example 185]
7.3 | N#C[C@H](Cc1ccc(N2CCN(C3CC3)CC2)cc1F)NC(=O)[C@H]1N[C@@H]2CC[C@H]1C2 [Example 187]
4.4 | C[C@H]1CN(C)CCN1c1ccc(C[C@@H](C#N)NC(=O)[C@H]2N[C@@H]3CC[C@H]2C3)c(F)c1 [Example 188]

IC50 [nM] | SMILES
3.3 | COCCN1C(C)CN(c2ccc(C[C@@H](C#N)NC(=O)[C@H]3N[C@@H]4CC[C@H]3C4)c(F)c2)CC1C (stereo partly shown) [Example 191]
4.1 | CC1CN(C)CCN1c1ccc(C[C@@H](C#N)NC(=O)[C@H]2N[C@@H]3CC[C@H]2C3)c(F)c1 (stereo partly shown) [Example 192]
6.5 | N#C[C@H](Cc1ccc(N2CCC(N3CCOCC3)CC2)cc1F)NC(=O)[C@H]1N[C@@H]2CC[C@H]1C2 [Example 193]
5.3 | CC1CN(c2ccc(C[C@@H](C#N)NC(=O)[C@H]3N[C@@H]4CC[C@H]3C4)c(F)c2)C(C)CN1C (stereo partly shown) [Example 196]
7.5 | N#C[C@H](Cc1ccc(-c2ccc(S(=O)(=O)N3CCOCC3)cc2)cc1F)NC(=O)[C@H]1N[C@@H]2CC[C@H]1C2 [Example 217]
1 | CN1CCN(S(=O)(=O)c2cccc(-c3ccc(C[C@@H](C#N)NC(=O)[C@H]4N[C@@H]5CC[C@H]4C5)c(F)c3)c2)CC1 [Example 224]
2.8 | CN1CCN(C(=O)c2cc(-c3ccc(C[C@@H](C#N)NC(=O)[C@H]4N[C@@H]5CC[C@H]4C5)c(F)c3)cs2)CC1 [Example 225]
1.8 | N#C[C@H](Cc1ccc(-c2csc(C(=O)N3CCn4nccc4C3)c2)cc1F)NC(=O)[C@H]1N[C@@H]2CC[C@H]1C2 [Example 226]
0.9 | CC(C)N1CCN(C(=O)c2cc(-c3ccc(C[C@@H](C#N)NC(=O)[C@H]4N[C@@H]5CC[C@H]4C5)c(F)c3)cs2)CC1 [Example 227]
4.6 | COCCN1CCN(C(=O)c2cc(-c3ccc(C[C@@H](C#N)NC(=O)[C@H]4N[C@@H]5CC[C@H]4C5)c(F)c3)cs2)CC1 [Example 228]
2.9 | N#C[C@H](Cc1ccc(-c2csc(C(=O)N3CCN(C4CC4)CC3)c2)cc1F)NC(=O)[C@H]1N[C@@H]2CC[C@H]1C2 [Example 229]
5.2 | N#C[C@H](Cc1ccc(-c2csc(C(=O)N3CCN(CC(F)(F)F)CC3)c2)cc1F)NC(=O)[C@H]1N[C@@H]2CC[C@H]1C2 [Example 232]
6.9 | N#C[C@H](Cc1ccc(-c2csc(C(=O)N3CCN4CCOCC4C3)c2)cc1F)NC(=O)[C@H]1N[C@@H]2CC[C@H]1C2 (stereo partly shown) [Example 234]
9.6 | N#C[C@H](Cc1ccc(-c2ccc(C(=O)N3CCn4nccc4C3)s2)cc1F)NC(=O)[C@H]1N[C@@H]2CC[C@H]1C2 [Example 237]
5.3 | CN1CCN(C(=O)c2coc(-c3ccc(C[C@@H](C#N)NC(=O)[C@H]4N[C@@H]5CC[C@H]4C5)c(F)c3)c2)CC1 [Example 241]
3.8 | CN1CCN(C(=O)c2cccc(-c3ccc(C[C@@H](C#N)NC(=O)[C@H]4N[C@@H]5CC[C@H]4C5)c(F)c3)c2)CC1 [Example 245]
8 | CN1CCCN(c2ccc(C[C@@H](C#N)NC(=O)[C@H]3N[C@@H]4CC[C@H]3C4)c(F)c2)CC1 [Example 247]
16.5 | N#C[C@H](Cc1ccc(N2CCN3CCOC[C@@H]3C2)cc1F)NC(=O)[C@H]1N[C@@H]2CC[C@H]1C2 [Example 249]
11.5 | N#C[C@H](Cc1ccc(N2CCN3CCOC[C@H]3C2)cc1F)NC(=O)[C@H]1N[C@@H]2CC[C@H]1C2 [Example 250]
5.5 | CNc1nc2cc(-c3ccc(C[C@@H](C#N)NC(=O)[C@H]4N[C@@H]5CC[C@H]4C5)c(F)c3)ccc2n1C [Example 253]
30.5 | Cn1cc(-c2ccc(C[C@@H](C#N)NC(=O)[C@H]3N[C@@H]4CC[C@H]3C4)c(F)c2)ccc1=O [Example 254]

SMILES | IC50 [nM]
CN1CC=C(c2ccc(C[C@@H](C#N)NC(=O)[C@H]3N[C@@H]4CC[C@H]3C4)c(F)c2)CC1 [Example 223] | 3
